How the values were obtained:
human GLP-1R = biological target: T1, human GLP-1R (Homo sapiens, UniProt P43220); experiment: HitHunter cAMP assay in transiently transfected COS-7 cells, human GLP-1R; format: cell-based; details: Emax normalized to highest concentration of endogenous ligand; Table 3
T1 construct: host or cells: COS-7
Experimental: (§1) The next day the assay was initiated by washing with HEPES buffered saline (HBS) and followed by an incubation step with assay buffer (HBS added 1 mM isobutyl-1-methylxanthine (IBMX)) for 30 min at 37° C. The ligands were then added and incubated for an additional 30 min at 37° C. After ligand incubation, the HitHunter® CAMP assay (Eurofins DiscoverX, Fremont, […] USA) was carried out according to the manufacturer's instructions. Luminescence was measured by PerkinElmer™ EnVision 2014 Multilabel Reader (PerkinElmer, Waltham, MA). The potencies (EC50 values) were determined by nonlinear regression using GraphPad Prism 9 (San Diego, California, USA). Sigmoid curves were fitted logistically. The efficacies (Emax values) were determined by normalization to the highest concentration applied of the endogenous ligand for each receptor.

human SNAP-GIPR = biological target: T2, human SNAP-GIPR (Homo sapiens, UniProt P48546); format: cell-based; parameters: AUC ± SD: unit not given beside the values
T2 construct: host or cells: HEK293A
T2 sequence (P48546 22-466): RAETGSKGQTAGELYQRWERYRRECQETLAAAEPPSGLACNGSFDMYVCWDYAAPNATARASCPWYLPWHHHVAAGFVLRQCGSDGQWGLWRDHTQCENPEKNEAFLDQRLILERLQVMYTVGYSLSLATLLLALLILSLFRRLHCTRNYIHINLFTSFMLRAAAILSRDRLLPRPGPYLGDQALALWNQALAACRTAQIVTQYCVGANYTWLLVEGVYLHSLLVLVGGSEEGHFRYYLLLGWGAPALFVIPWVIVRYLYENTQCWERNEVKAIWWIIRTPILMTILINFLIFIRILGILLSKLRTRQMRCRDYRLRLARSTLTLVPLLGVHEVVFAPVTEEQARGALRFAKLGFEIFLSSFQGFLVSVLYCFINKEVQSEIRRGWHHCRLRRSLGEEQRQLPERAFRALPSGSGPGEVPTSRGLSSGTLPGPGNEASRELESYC

[1] = system: bone turnover markers CTX (resorption) and P1NP (formation); experiment: bone turnover markers CTX and P1NP in rats after SC injection; format: in vivo, rat
Experimental: Sprague Dawley female rats, age 10 w (Janvier Labs, France), n=4, were fasted from 06:00 until after final blood sample. A baseline blood sample was taken just before subcutaneous administration of compound at 10:00. Compounds were dissolved in 50 mM phosphate buffer, pH 7.5+0.1% Haemaccel. Dose: Compound no. 11 4248.5 μg/kg.
Blood samples were taken at 10:00, 14:00, 18:00 and 22:00. Plasma was obtained within 20 min after blood sampling and stored at −20C.
CTX and P1NP were measured using RatLaps (CTX-I) EIA and Rat/mouse P1NP EIA (Immunidiagnosticsystems, UK) according to protocols.
Data are presented using GraphPad Prism V9.3.0 as % of baseline as mean+/−SEM and analyzed by 2-way Anova with Sidaks multiple comparisons tests or by unpaired t-test.

rat GIPR = biological target: T3, rat GIPR (Rattus norvegicus, UniProt P43219); experiment: HitHunter cAMP assay in transiently transfected COS-7 cells, rat GIPR; format: cell-based; details: Emax normalized to highest concentration of endogenous ligand
T3 construct: expressed in transfected cells; host or cells: COS-7
T3 sequence (P43219 19-455): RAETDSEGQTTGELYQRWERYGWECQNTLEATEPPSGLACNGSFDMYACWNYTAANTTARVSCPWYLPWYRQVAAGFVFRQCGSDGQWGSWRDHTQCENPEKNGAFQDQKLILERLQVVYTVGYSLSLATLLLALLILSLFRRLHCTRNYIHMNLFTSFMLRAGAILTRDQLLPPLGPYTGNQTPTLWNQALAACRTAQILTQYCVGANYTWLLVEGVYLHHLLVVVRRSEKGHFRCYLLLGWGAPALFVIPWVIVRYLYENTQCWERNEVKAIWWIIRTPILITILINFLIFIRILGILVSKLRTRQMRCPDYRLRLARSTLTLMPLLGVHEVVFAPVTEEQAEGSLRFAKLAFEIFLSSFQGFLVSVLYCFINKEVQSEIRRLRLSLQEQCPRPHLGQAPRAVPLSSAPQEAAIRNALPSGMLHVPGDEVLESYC
Experimental: as §1

rat GLP-2R = biological target: T4, rat GLP-2R (Rattus norvegicus, UniProt Q9Z0W0); experiment: HitHunter cAMP assay in transiently transfected COS-7 cells, rat GLP-2R; format: cell-based; details: Emax normalized to highest concentration of endogenous ligand
T4 construct: expressed in transfected cells; host or cells: COS-7
T4 sequence (Q9Z0W0 1-550): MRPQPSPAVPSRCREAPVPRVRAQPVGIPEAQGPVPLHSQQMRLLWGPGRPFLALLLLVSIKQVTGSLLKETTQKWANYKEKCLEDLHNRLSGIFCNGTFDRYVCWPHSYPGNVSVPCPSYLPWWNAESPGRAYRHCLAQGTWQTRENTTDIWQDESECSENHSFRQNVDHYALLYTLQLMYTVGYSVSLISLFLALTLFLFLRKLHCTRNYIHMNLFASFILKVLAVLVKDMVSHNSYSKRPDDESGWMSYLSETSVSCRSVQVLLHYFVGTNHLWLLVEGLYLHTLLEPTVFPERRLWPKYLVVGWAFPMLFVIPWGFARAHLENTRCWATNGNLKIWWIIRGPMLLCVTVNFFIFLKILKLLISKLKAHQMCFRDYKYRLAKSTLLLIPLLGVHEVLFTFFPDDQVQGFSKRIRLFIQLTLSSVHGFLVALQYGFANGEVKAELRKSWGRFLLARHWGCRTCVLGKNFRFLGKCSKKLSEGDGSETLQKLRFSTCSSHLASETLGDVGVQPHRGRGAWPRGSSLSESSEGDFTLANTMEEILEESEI
Experimental: as §1

macaque GIPR = experiment: HitHunter cAMP assay in transiently transfected COS-7 cells, macaque GIPR; format: cell-based
Experimental: as §1

human GIPR [2] = biological target: T5, human GIPR (Homo sapiens, UniProt P48546); format: cell-based; parameters: host or cells: COS-7; details: Emax normalized to highest concentration of endogenous ligand; Table 2
T5 sequence (P48546 22-466): T2 sequence (P48546 22-466)

human GIPR [3] = biological target: T5, human GIPR; format: cell-based; parameters: host or cells: HEK293; details: beta-arrestin 2 recruitment; for AUC ± SD: AUC of sigmoid curves up to 100 nM
Experimental: HEK293 cells were cultured at 10% CO2 and 37° C. in DMEM-GlutaMAX™-I supplemented with 10% FBS, 180 units/mL penicillin and 45 g/mL streptomycin. These cells were transfected using PEI for the beta-arrestin recruitment assay as described in detail in (van der Velden et al., 2021).
HEK293 cells were transiently transfected with human GIPR, the donor Rluc8-Arrestin-3-Sp1 (beta-arrestin 2 recruitment), the acceptor mem-linker-citrine-SH3, and the GPCR kinase 2 (GRK2). Two days following transfection, the cells were washed with PBS and resuspended in PBS with 5 mM glucose. Then, 85 μL of the cell suspension solution was added to each well of a white 96-well plate followed by the addition of PBS with 5 μM coelenterazine-h. Following 10 min incubation, increasing concentrations of ligands were added and incubated for an additional 30 min. Luminescence was measured with the Berthold Technologies Mithras Multilabel Reader (Rluc8 at 485±40 nm and YFP at 530±25 nm). The potencies (EC50 values) were determined by nonlinear regression using GraphPad Prism 9 (San Diego, California, USA). Sigmoid curves were fitted logistically. The efficacies (Emax values) were determined by normalization to the highest concentration applied of the endogenous ligand (GIP) for the GIPR.

human GIPR [4] = biological target: T5, human GIPR; details: 10 nM ligand for 90 min, then 125I-GIP(1-42) labelling; FIG. 3
Experimental: COS-7 cells were cultured at 10% CO2 and 37° C. in Dulbecco's Modified Eagle Medium (DMEM) 1885 supplemented with 10% fetal bovine serum (FBS), 2 mM glutamine, 180 units/ml penicillin, and 45 g/ml streptomycin.
The following day, the media of the cells were changed to DMEM supplemented 2% FBS and preincubated either with or without 10 nM ligand for 90 min. […] After incubation, the cells were washed twice in 100 μl per well ice-cold binding buffer and lysed using 175 μl per well of 200 mM NaOH with 1% SDS for 30 min. The samples were analyzed by the Wizard Gamme Counter (PerkinElmer, Waltham, MA). Data was analyzed by comparing the counts measured from the ligand preincubated and non-preincubated cells.

T1 sequence (P43220 24-463): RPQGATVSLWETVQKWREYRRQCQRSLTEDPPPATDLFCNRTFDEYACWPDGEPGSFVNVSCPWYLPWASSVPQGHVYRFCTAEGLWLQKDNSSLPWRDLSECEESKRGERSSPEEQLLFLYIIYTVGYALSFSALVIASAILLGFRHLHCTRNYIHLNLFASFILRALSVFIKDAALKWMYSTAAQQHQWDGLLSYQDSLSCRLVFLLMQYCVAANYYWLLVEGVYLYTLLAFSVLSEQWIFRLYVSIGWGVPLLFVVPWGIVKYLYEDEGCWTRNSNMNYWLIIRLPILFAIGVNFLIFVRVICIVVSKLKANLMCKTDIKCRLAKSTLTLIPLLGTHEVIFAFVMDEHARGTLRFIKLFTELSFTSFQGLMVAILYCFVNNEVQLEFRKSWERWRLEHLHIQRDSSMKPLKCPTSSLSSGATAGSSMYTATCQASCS

In the case of “H-Aib-DGTFISDY-K(γGlu-C16)-TILDNLAARDFINWLIQTKITK-OH [Compound no. 11]”, the “Efficacy GLP-1R” value (human GLP-1R) is reported as 11, the “AUC ± SD” value (human SNAP-GIPR) is reported as 19 ± 2 and the “Emax ± SD (%)” value (human SNAP-GIPR; GIPR internalization, NA = no activity) is reported as 24 ± 6%. For the same substance, the “formation marker P1NP, % of baseline” value ([1]; female rats, SC 4248.5 μg/kg, time 14:00 and 18:00, FIG. 2B) was “increase”, the “resorption marker CTX, % of baseline” value ([1]; female rats, SC 4248.5 μg/kg, time point 14:00, p-value=0.08, FIG. 2A) was “reduced (ns) increase” and the “CTX AUC” value ([1]; rat, in vivo, sc) was “tendency towards a reduction”. The “rGIPR Efficacy (%)” value (rat GIPR) was 107.0%, the “rGLP-2R Efficacy (%)” value (rat GLP-2R) was 104.0% and the “maGIPR Efficacy (%)” value (macaque GIPR; Emax normalized to highest concentration of the endogenous ligand, COS-7 cells) was 92.5%. For the same substance, the “maGIPR pEC50” value (macaque GIPR; cAMP, transiently transfected COS-7 cells) was 9.0, the “Efficacy GIPR” value (human GIPR [2]) was 115 and the “AUC ± SD” value (human GIPR [3]) was 61 ± 14. The “Emax ± SD (%)” value (human GIPR [3]; normalized to highest concentration of GIP, NA = no activity) was 41 ± 6%.
“YAEGTFISDYSIAMDKIHQQDFVNWLLAQKGKKNDWKHNITQ [hGIP, reference compound]” was tested, and the “AUC ± SD” value (human SNAP-GIPR) was 204 ± 3, the “GIPR expression at the cell surface following ligand preincubation” value (human GIPR [4]) was “downregulation of the GIPR from the cell surface” and the “AUC ± SD” value (human GIPR [3]) was 223 ± 16.

— patent US20250304643A1, “PEPTIDE DUAL AGONISTS OF GIPR AND GLP2R” (BAINAN BIOTECH APS, priority 2021, published 2025)
